From publication PMC10288505, “Photoswitchable Calixarene Activators for Controlled Peptide Transport across Lipid Membranes” (Journal of the American Chemical Society, 2023)

Legend:
[1] = tested on: HeLa cells; experiment: MTT viability assay; assay type: cell-based; conditions: 24 h of incubation, 4-parameters logistic fit, triplicate, read-out: IC50 cytotoxicity
Experimental: Success in artificial vesicle assays encouraged us to conduct transport experiments of fluorescently labeled peptides in living cells (Figure 5). We first employed confocal fluorescence microscopy to evaluate counterion activator 2 for the intracellular transport of a carboxytetramethylrhodamine-labeled R8 peptide (TAMRA-R8) into the cytosol of HeLa cells. Cationic peptides usually remain trapped inside the endosomes when incubated with cells at low μM concentrations.[32],[44] […] The cytometry experiments validated the E isomer selective transport and indicated a four-fold intracellular delivery enhancement (Figure 5C and Figure S52). […]
measured on a Guava easyCyte BG HT collecting the emission at 583/26 nm (Yellow-G channel), using InCyte v3.2 (GuavaSoft, Millipore). Cells with typical FSC and SSC parameters were selected and the mean fluorescence intensity was calculated for each sample. Each condition was measured in quadruplicate. […]
Afterwards, samples were removed and replaced with 100 µL of fresh complete DMEM supplemented with 0.5 mg/mL MTT. […] The absorbance at 570 nm was measured with a plate reader (Tecan Infinite F200Pro) and the data normalized to the value of untreated cells (100% viability), after blank subtraction (cells previously treated with Triton X-100). Each condition was measured in triplicate. […]

[2] = Light-modulated CF dye efflux assay (in situ irradiation at 500 nm); assay type: biochemical
Experimental: To this aim, Z-1 and Z-2 were added to EYPC-LUV⊃CF dispersions at fixed concentrations to study the CF release upon in situ light stimulation. […] Irradiation with 500 nm light promotes the conversion of Z-2 into E-2, a stronger counterion activator, leading to ca. 50% of extra dye released as a result of the light-triggered translocation of R6 into the liposome (Figure 4 iii).
Figure 4 (A) Light-modulated dye efflux assays performed with 4 μM R6, 60 nM Z-2, and 15 μΜ EYPC-LUV⊃CF (50 mM CF inside the liposome) and (B) schematization of each phase in the assay. (i) First, the activator Z-2 was added to a liposome solution (ii) followed by the addition of the peptide. (iii) The same sample was irradiated for 25 min at 500 nm, leading to a significant increase in CF release. (iv) Finally, in order to normalize the measurement for the maximum emission possible, the vesicles were lysed by addition of a small aliquot of Triton X-100. […]
until the emission stabilizes and a maximum of release is reached. If the counterion activator has the capacity to activate the transport, CF should be co-transported to the exterior of the liposome with the influx of the counterion-peptide complex. Finally, Triton X-100 is added to the solution to dissolve the vesicles and obtain the maximum amount of CF that could be released from the liposomes and emit in the […]
EC50 and Ymax values were calculated from the values of corrected emission at the plateau that is reached, according to previously reported assays.7
Light-activated release assays. The light-modulation offered by this novel counterion activator was tested by performing dye efflux assays as previously described, with the addition of an interval in the measurement where the solution was irradiated at 500 nm. […]
Figure S44 - Light-modulated dye efflux assays done with the peptide A) R6, 4 µM, and B) R8, 5 µM, with a fixed concentration of Z-1 of 0.20 µM for both assays. 40 µM of EYPC-LUV and 20 µΜ EYPC-LUV⊃CF (50 mM of CF) were used in the first assay and 30 µM of EYPC-LUV and 7 µΜ EYPC-LUV⊃CF (50 mM of CF) were used in the latter. The assay was performed in the same way as the dye release assays (addition of the peptide marked with a red dashed arrow) with an additional irradiation step for an interval of 30 to 40 min (marked with a black arrow), leading to an increase in release of ~15% for the peptide R6 and only 7% for the peptide R8. […]
Figure S45 - Light-modulated dye efflux assay done with the peptide R8, 4 µM, with a fixed concentration of Z-2 of 16 nM. 15 µΜ of EYPC-LUV⊃CF (50 mM of CF) were used and the light activation step was done with a single 25 min irradiation cycle at 500 nm (marked with a black arrow). The increase of release obtained was of 14%. […]

**Q.** For `CCCCc1ccc(/N=N/c2ccc(OCCCOc3c4cc(S(=O)(=O)[O-])cc3Cc3cc(S(=O)(=O)[O-])cc(c3O)Cc3cc(S(=O)(=O)[O-])cc(c3O)Cc3cc(S(=O)(=O)[O-])cc(c3O)C4)cc2)cc1.[Li+].[Li+].[Li+].[Li+]` [E-2], which IC50 [1] is on record?
**A.** 16.9 µM

**Q.** With `O=S(=O)([O-])c1cc2c(O)c(c1)Cc1cc(S(=O)(=O)[O-])cc(c1O)Cc1cc(S(=O)(=O)[O-])cc(c1OCCCCCCOc1ccc(/N=N\c3ccccc3)cc1)Cc1cc(S(=O)(=O)[O-])cc(c1O)C2.[Li+].[Li+].[Li+].[Li+]` [Z-1] as the compound, how does the “Increase in CF release upon irradiation, R6” value ([2]; 4 µM R6, 0.20 µM Z-1, 40 µM EYPC-LUV and 20 µM EYPC-LUV⊃CF (50 mM CF), irradiation 30 to 40 min at 500 nm) read?
**A.** ~ 15%

**Q.** What about the “Increase in CF release upon irradiation, R8” value ([2]; 5 µM R8, 0.20 µM Z-1, 30 µM EYPC-LUV and 7 µM EYPC-LUV⊃CF (50 mM CF), irradiation 30 to 40 min at 500 nm) of the same compound?
**A.** 7%

**Q.** With `CCCCc1ccc(/N=N\c2ccc(OCCCOc3c4cc(S(=O)(=O)[O-])cc3Cc3cc(S(=O)(=O)[O-])cc(c3O)Cc3cc(S(=O)(=O)[O-])cc(c3O)Cc3cc(S(=O)(=O)[O-])cc(c3O)C4)cc2)cc1.[Li+].[Li+].[Li+].[Li+]` [Z-2] as the compound, how does the IC50 [1] read?
**A.** 19.2 µM

**Q.** And the “Extra dye released upon irradiation at 500 nm, R6” value ([2]; 4 μM R6, 60 nM Z-2, 15 μM EYPC-LUV⊃CF (50 mM CF), irradiated 25 min at 500 nm)?
**A.** ca. 50%

**Q.** What about the “Increase in CF release upon irradiation, R8” value ([2]; 4 µM R8, 16 nM Z-2, 15 µM EYPC-LUV⊃CF (50 mM CF), single 25 min irradiation cycle at 500 nm) of the same compound?
**A.** 14%
